Measurements as given in patent US20100267561A1, “HERBICIDAL PYRIDAZINONE DERIVATIVES” (priority 2007, published 2010).

Columns and labels:
Assay in all cases: Test E pre-/postemergence plant response
Type in all cases: in vivo
Conditions in all cases: scale 0 to 100
[1] = system: Italian ryegrass (Lolium multiflorum)
Excerpt: (§1) Seeds of plant species selected from bermudagrass (Cynodon dactylon), Surinam grass (Brachiaria decumbens), large crabgrass (Digitaria sanguinalis), green foxtail (Setaria viridis), goosegrass (Eleusine indica), johnsongrass (Sorghum halepense), kochia (Kochia scoparia), pitted morningglory (Ipomoea lacunosa), purple nutsedge (Cyperus rotundus), common ragweed (Ambrosia elation), black mustard (Brassica nigra), guineagrass (Panicum maximum), dallisgrass (Paspalum dilatatum), barnyardgrass (Echinochloa crus-galli), southern (S.) sandbur (Cenchrus echinatus), common sowthistle (Sonchus oleraceous), prickly sida (Sida spinosa), Italian ryegrass (Lolium multiflorum), common purslane (Portulaca oleracea), broadleaf signalgrass (Brachiaria platyphylla), common groundsel (Senecio vulgaris), common chickweed (Stellaria media), Virginia (V.) dayflower (Commelina virginica), tropical (T.) spiderwort (Commelina benghalensis), annual bluegrass (Poa annua), naked crabgrass (Digitaria nuda), itchgrass (Rottboellia cochinchinensis), quackgrass (Elytrigia repens), Canada horseweed (Conyza canadensis), field bindweed (Convolvulus arvensis), spanishneedles (Bidens bipinnata), common mallow (Malva sylvestris) and Russian thistle (Salsola kali) were planted and treated preemergence with test chemicals formulated in a non-phytotoxic solvent mixture which included a surfactant. At the same time, plants selected from these weed species were treated with postemergence applications of some of the test chemicals formulated in the same manner. Plants ranged in height from 2 to 18 cm (1- to 4-leaf stage) for postemergence treatments.
(§2) Treated plants and controls were maintained in a greenhouse for 14 to 21 days, after which time all species were compared to controls and visually evaluated. Plant response ratings, summarized in Table E, are based on a scale of 0 to 100 where 0 is no effect and 100 is complete control. A dash (-) response means no test result.

[2] = system: annual bluegrass (Poa annua)
Excerpt: as §1, §2

[3] = system: broadleaf signalgrass (Brachiaria platyphylla)
Excerpt: as §1, §2

[4] = system: common mallow (Malva sylvestris)
Excerpt: as §1, §2

[5] = system: guineagrass (Panicum maximum)
Excerpt: as §1, §2

[6] = system: itchgrass (Rottboellia cochinchinensis)
Excerpt: as §1, §2

[7] = system: naked crabgrass (Digitaria nuda)
Excerpt: as §1, §2

[8] = system: pitted morningglory (Ipomoea lacunosa)
Excerpt: as §1, §2

[9] = system: purple nutsedge (Cyperus rotundus)
Excerpt: as §1, §2

CCc1cc(-c2ccc(Cl)cc2)nn1-c1c(OS(C)(=O)=O)cnn(C)c1=O [Compound 39]
Plant response rating, Ryegrass, Italian ([1]; 16 g ai/ha, Preemergence): 100 | Plant response rating, Ryegrass, Italian ([1]; 31 g ai/ha, Preemergence): 100 | Plant response rating, Ryegrass, Italian ([1]; Postemergence, 8 g ai/ha): 75 | Plant response rating, Ryegrass, Italian ([1]; Postemergence, 16 g ai/ha): 98 | Plant response rating, Ryegrass, Italian ([1]; Postemergence, 31 g ai/ha): 98 | Plant response rating, Ryegrass, Italian ([1]; Postemergence, 62 g ai/ha): 100 | Plant response rating, Bluegrass ([2]; 8 g ai/ha, Preemergence): 0 | Plant response rating, Bluegrass ([2]; 16 g ai/ha, Preemergence): 0 | Plant response rating, Bluegrass ([2]; 31 g ai/ha, Preemergence): 0 | Plant response rating, Bluegrass ([2]; 62 g ai/ha, Preemergence): 0 | Plant response rating, Bluegrass ([2]; Postemergence, 8 g ai/ha): 0 | Plant response rating, Bluegrass ([2]; Postemergence, 16 g ai/ha): 0 | Plant response rating, Bluegrass ([2]; Postemergence, 31 g ai/ha): 0 | Plant response rating, Bluegrass ([2]; Postemergence, 62 g ai/ha): 0 | Plant response rating, Signalgrass ([3]; 16 g ai/ha, Preemergence): 85 | Plant response rating, Signalgrass ([3]; 31 g ai/ha, Preemergence): 95 | Plant response rating, Signalgrass ([3]; 62 g ai/ha, Preemergence): 100 | Plant response rating, Signalgrass ([3]; Postemergence, 8 g ai/ha): 35 | Plant response rating, Signalgrass ([3]; Postemergence, 16 g ai/ha): 95 | Plant response rating, Signalgrass ([3]; Postemergence, 31 g ai/ha): 95 | Plant response rating, Signalgrass ([3]; Postemergence, 62 g ai/ha): 100 | Plant response rating, Mallow ([4]; Postemergence, 8 g ai/ha): 0 | Plant response rating, Mallow ([4]; Postemergence, 16 g ai/ha): 0 | Plant response rating, Mallow ([4]; Postemergence, 31 g ai/ha): 0 | Plant response rating, Mallow ([4]; Postemergence, 62 g ai/ha): 0 | Plant response rating, Guineagrass ([5]; 16 g ai/ha, Preemergence): 100 | Plant response rating, Guineagrass ([5]; 31 g ai/ha, Preemergence): 100 | Plant response rating, Guineagrass ([5]; 62 g ai/ha, Preemergence): 100 | Plant response rating, Guineagrass ([5]; Postemergence, 8 g ai/ha): 80 | Plant response rating, Guineagrass ([5]; Postemergence, 16 g ai/ha): 80 | Plant response rating, Guineagrass ([5]; Postemergence, 31 g ai/ha): 90 | Plant response rating, Guineagrass ([5]; Postemergence, 62 g ai/ha): 95 | Plant response rating, Itchgrass ([6]; 16 g ai/ha, Preemergence): 60 | Plant response rating, Itchgrass ([6]; 31 g ai/ha, Preemergence): 75 | Plant response rating, Itchgrass ([6]; 62 g ai/ha, Preemergence): 80 | Plant response rating, Itchgrass ([6]; Postemergence, 8 g ai/ha): 20 | Plant response rating, Itchgrass ([6]; Postemergence, 16 g ai/ha): 25 | Plant response rating, Itchgrass ([6]; Postemergence, 31 g ai/ha): 40 | Plant response rating, Itchgrass ([6]; Postemergence, 62 g ai/ha): 60 | Plant response rating, Crabgrass, Naked ([7]; 8 g ai/ha, Preemergence): 75 | Plant response rating, Crabgrass, Naked ([7]; 16 g ai/ha, Preemergence): 98 | Plant response rating, Crabgrass, Naked ([7]; 31 g ai/ha, Preemergence): 98 | Plant response rating, Crabgrass, Naked ([7]; 62 g ai/ha, Preemergence): 100 | Plant response rating, Crabgrass, Naked ([7]; Postemergence, 8 g ai/ha): 65 | Plant response rating, Crabgrass, Naked ([7]; Postemergence, 16 g ai/ha): 80 | Plant response rating, Crabgrass, Naked ([7]; Postemergence, 31 g ai/ha): 80 | Plant response rating, Crabgrass, Naked ([7]; Postemergence, 62 g ai/ha): 98 | Plant response rating, Morningglory ([8]; 16 g ai/ha, Preemergence): 0 | Plant response rating, Morningglory ([8]; 31 g ai/ha, Preemergence): 0 | Plant response rating, Morningglory ([8]; 62 g ai/ha, Preemergence): 0 | Plant response rating, Morningglory ([8]; Postemergence, 8 g ai/ha): 0 | Plant response rating, Morningglory ([8]; Postemergence, 16 g ai/ha): 0 | Plant response rating, Morningglory ([8]; Postemergence, 31 g ai/ha): 0 | Plant response rating, Morningglory ([8]; Postemergence, 62 g ai/ha): 0 | Plant response rating, Nutsedge, Purple ([9]; 16 g ai/ha, Preemergence): 0 | Plant response rating, Nutsedge, Purple ([9]; 31 g ai/ha, Preemergence): 0 | Plant response rating, Nutsedge, Purple ([9]; Postemergence, 8 g ai/ha): 0 | Plant response rating, Nutsedge, Purple ([9]; Postemergence, 16 g ai/ha): 0 | Plant response rating, Nutsedge, Purple ([9]; Postemergence, 31 g ai/ha): 0 | Plant response rating, Nutsedge, Purple ([9]; Postemergence, 62 g ai/ha): 0

Cn1ncc(O)c(-c2nn(-c3ccc(Cl)cc3)cc2Br)c1=O [Compound 31]
Plant response rating, Ryegrass, Italian ([1]; 16 g ai/ha, Preemergence): 65 | Plant response rating, Ryegrass, Italian ([1]; 31 g ai/ha, Preemergence): 90 | Plant response rating, Ryegrass, Italian ([1]; 62 g ai/ha, Preemergence): 100 | Plant response rating, Ryegrass, Italian ([1]; Postemergence, 8 g ai/ha): 30 | Plant response rating, Ryegrass, Italian ([1]; Postemergence, 16 g ai/ha): 35 | Plant response rating, Ryegrass, Italian ([1]; Postemergence, 31 g ai/ha): 50 | Plant response rating, Ryegrass, Italian ([1]; Postemergence, 62 g ai/ha): 90 | Plant response rating, Bluegrass ([2]; 8 g ai/ha, Preemergence): 0 | Plant response rating, Bluegrass ([2]; 16 g ai/ha, Preemergence): 0 | Plant response rating, Bluegrass ([2]; 31 g ai/ha, Preemergence): 0 | Plant response rating, Bluegrass ([2]; 62 g ai/ha, Preemergence): 0 | Plant response rating, Bluegrass ([2]; Postemergence, 8 g ai/ha): 0 | Plant response rating, Bluegrass ([2]; Postemergence, 16 g ai/ha): 0 | Plant response rating, Bluegrass ([2]; Postemergence, 31 g ai/ha): 0 | Plant response rating, Bluegrass ([2]; Postemergence, 62 g ai/ha): 10 | Plant response rating, Signalgrass ([3]; 16 g ai/ha, Preemergence): 15 | Plant response rating, Signalgrass ([3]; 31 g ai/ha, Preemergence): 65 | Plant response rating, Signalgrass ([3]; 62 g ai/ha, Preemergence): 80 | Plant response rating, Signalgrass ([3]; Postemergence, 8 g ai/ha): 65 | Plant response rating, Signalgrass ([3]; Postemergence, 16 g ai/ha): 65 | Plant response rating, Signalgrass ([3]; Postemergence, 31 g ai/ha): 75 | Plant response rating, Signalgrass ([3]; Postemergence, 62 g ai/ha): 75 | Plant response rating, Mallow ([4]; 31 g ai/ha, Preemergence): 0 | Plant response rating, Mallow ([4]; 62 g ai/ha, Preemergence): 0 | Plant response rating, Mallow ([4]; Postemergence, 8 g ai/ha): 0 | Plant response rating, Mallow ([4]; Postemergence, 16 g ai/ha): 0 | Plant response rating, Mallow ([4]; Postemergence, 31 g ai/ha): 0 | Plant response rating, Mallow ([4]; Postemergence, 62 g ai/ha): 0 | Plant response rating, Guineagrass ([5]; 16 g ai/ha, Preemergence): 90 | Plant response rating, Guineagrass ([5]; 31 g ai/ha, Preemergence): 100 | Plant response rating, Guineagrass ([5]; 62 g ai/ha, Preemergence): 100 | Plant response rating, Guineagrass ([5]; Postemergence, 8 g ai/ha): 75 | Plant response rating, Guineagrass ([5]; Postemergence, 16 g ai/ha): 80 | Plant response rating, Guineagrass ([5]; Postemergence, 31 g ai/ha): 85 | Plant response rating, Guineagrass ([5]; Postemergence, 62 g ai/ha): 90 | Plant response rating, Itchgrass ([6]; 16 g ai/ha, Preemergence): 0 | Plant response rating, Itchgrass ([6]; 31 g ai/ha, Preemergence): 75 | Plant response rating, Itchgrass ([6]; 62 g ai/ha, Preemergence): 75 | Plant response rating, Itchgrass ([6]; Postemergence, 8 g ai/ha): 50 | Plant response rating, Itchgrass ([6]; Postemergence, 16 g ai/ha): 60 | Plant response rating, Itchgrass ([6]; Postemergence, 31 g ai/ha): 65 | Plant response rating, Itchgrass ([6]; Postemergence, 62 g ai/ha): 70 | Plant response rating, Crabgrass, Naked ([7]; 8 g ai/ha, Preemergence): 0 | Plant response rating, Crabgrass, Naked ([7]; 16 g ai/ha, Preemergence): 50 | Plant response rating, Crabgrass, Naked ([7]; 31 g ai/ha, Preemergence): 98 | Plant response rating, Crabgrass, Naked ([7]; 62 g ai/ha, Preemergence): 100 | Plant response rating, Crabgrass, Naked ([7]; Postemergence, 8 g ai/ha): 30 | Plant response rating, Crabgrass, Naked ([7]; Postemergence, 16 g ai/ha): 65 | Plant response rating, Crabgrass, Naked ([7]; Postemergence, 31 g ai/ha): 75 | Plant response rating, Crabgrass, Naked ([7]; Postemergence, 62 g ai/ha): 90 | Plant response rating, Morningglory ([8]; 16 g ai/ha, Preemergence): 0 | Plant response rating, Morningglory ([8]; 31 g ai/ha, Preemergence): 0 | Plant response rating, Morningglory ([8]; 62 g ai/ha, Preemergence): 0 | Plant response rating, Morningglory ([8]; Postemergence, 8 g ai/ha): 0 | Plant response rating, Morningglory ([8]; Postemergence, 16 g ai/ha): 0 | Plant response rating, Morningglory ([8]; Postemergence, 31 g ai/ha): 0 | Plant response rating, Morningglory ([8]; Postemergence, 62 g ai/ha): 0 | Plant response rating, Nutsedge, Purple ([9]; 16 g ai/ha, Preemergence): 0 | Plant response rating, Nutsedge, Purple ([9]; 31 g ai/ha, Preemergence): 0 | Plant response rating, Nutsedge, Purple ([9]; 62 g ai/ha, Preemergence): 0 | Plant response rating, Nutsedge, Purple ([9]; Postemergence, 8 g ai/ha): 0 | Plant response rating, Nutsedge, Purple ([9]; Postemergence, 16 g ai/ha): 0 | Plant response rating, Nutsedge, Purple ([9]; Postemergence, 31 g ai/ha): 0 | Plant response rating, Nutsedge, Purple ([9]; Postemergence, 62 g ai/ha): 0
